Experimental data published in PMC2923778 (Journal of Molecular Biology, 2010).

Molecular target: T1, hSPSB1 (Homo sapiens, UniProt Q96BD6)
T1 construct: hexahistidine (N, cleaved yes); made in house; host or cells: E. coli BL21(DE3)-R3-pRARE2
T1 sequence (Q96BD6 24-233): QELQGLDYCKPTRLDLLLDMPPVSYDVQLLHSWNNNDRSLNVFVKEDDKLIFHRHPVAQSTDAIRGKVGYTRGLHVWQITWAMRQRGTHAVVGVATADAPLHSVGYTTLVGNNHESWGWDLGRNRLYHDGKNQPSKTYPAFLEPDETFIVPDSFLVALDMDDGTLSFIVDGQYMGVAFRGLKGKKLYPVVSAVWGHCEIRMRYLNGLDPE
Test: ITC of peptides with hSPSB1
Details: 20 °C, 50 mM Hepes pH 7.4, 150 mM NaCl, 1 mM DTT, 100 μM peptide into 10 μM protein, ± error of curve fit, single binding site model
Method: Human SPSB constructs lacking the SOCS box region [hSPSB1(24–233), SWISS-PROT accession number Q96BD6; hSPSB2(26–219), Q99619 and hSPSB4(28–233), Q96A44] were cloned into pNIC28-Bsa4 by ligation-independent cloning. Constructs were transformed into BL21(DE3)-R3-pRARE2 and expressed overnight at 18 °C with 0.5 mM IPTG added at OD600 = 0.5–0.8. hSPSB proteins were purified using Ni-Sepharose (GE Healthcare, UK), eluted by imidazole and subsequently cleaved from the N-terminal hexahistidine tag by addition of tobacco etch virus protease (although hSPSB2 was resistant to cleavage). Further purification was achieved by size-exclusion chromatography and finally anion-exchange chromatography in the case of hSPSB1.
ITC measurements on mSPSB proteins were performed at 22 °C using a MicroCalorimetry System (MicroCal, Northhampton, MA). mSPSB1, mSPSB2, and mSPSB4 were prepared by dialyzing against 20 mM Tris, 150 mM sodium chloride, and 2.5 mM calcium chloride at pH 8.0. […] Dilution enthalpies were determined separately by titrating peptide into buffer and used to correct the enthalpies of the binding of protein and peptide. Data were analyzed using a single binding site model implemented in the Origin software package provided with the instrument.

CC[C@H](C)[C@H](NC(=O)[C@H](Cc1ccc(O)cc1)NC(=O)[C@H](Cc1ccccc1)NC(=O)[C@H](CCC(=O)O)NC(=O)[C@H](CCCNC(=N)N)NC(=O)[C@H](CCCCN)NC(=O)[C@H](CCCNC(=N)N)NC(=O)[C@H](CCC(=O)O)NC(=O)[C@@H](NC(=O)[C@H](CC(=O)O)NC(=O)[C@H](CCC(=O)O)NC(=O)[C@@H](NC(=O)[C@@H](NC(=O)[C@H](CC(N)=O)NC(=O)[C@H](CC(N)=O)NC(=O)[C@H](CC(N)=O)NC(=O)[C@H](CC(N)=O)NC(=O)[C@H](CC(N)=O)NC(=O)[C@@H](NC(=O)[C@@H](N)CC(=O)O)[C@@H](C)CC)[C@@H](C)CC)C(C)C)C(C)C)C(=O)O [VASA]
Kd: 40 ± 5 nM
